Data published in patent US20060093628A1, “Protein aggregate magnesium-ammonium phospholinoleate-palmitoleate anhydride immonomodulator, its production process and formulation” (priority 2004, published 2006).

Columns and labels:
[1] = system: cytokines (IL-2, IFN, IL-4, IL-10); assay: Cytokines in ConA-stimulated splenic cell cultures from mice with Ehrlich ascitic tumor; type: in vivo, Balb/c mice; settings: 5.0 mg/kg for 7 days
Method: (§1) Treatment of Balb/c mice, inoculated with Ehrlich ascitic tumor, with 5.0 mg/kg of the compound of the present invention for a period of 7 days was also able to modulate the functional ability of mature immunocompetent cells, supplying additional evidence about the action mechanisms of the compound. This treatment protocol stimulated the proliferative ability of lymphocytes and the cytotoxicity mediated by natural killer (NK) cells.

[2] = system: Lysteria monocytogenes; assay: Lethal Lysteria monocytogenes infection in Balb/c mice; type: in vivo
[3] = system: cytokines (IL-2, IFN); assay: Cytokines in spleen cell cultures from mice infected with L. monocytogenes; type: in vivo, Balb/c mice; settings: pre-treatment with 5.0 mg/kg; culture of spleen cells
Method: Levels of the same cytokines found in Balb/c mice infected with L. monocytogenes and subjected to pre-treatment with 5.0 mg/kg of the compound of the present invention supplied additional information about its biological activity. The increase in production of IL-2 e IFN- by the culture of spleen cells from these animals indicate a modulation of the inflammatory-like response, which is fundamental for eradication of the infection.

[4] = system: parvovirus and distemper virus; assay: Treatment of dogs carrying parvovirus and distemper virus; type: in vivo
Source text: a) Antiviral properties through immune response modulation.

[5] = system: plasmacytoma; assay: Subcutaneously inoculated plasmacytoma in Balb/c mice; type: in vivo; settings: 5.0 mg/kg intraperitoneal, 3 doses per week, 7 weeks
Source text: (§2) b) Antitumoral properties through immune response modulation.

[6] = system: granulocyte-macrophage precursor cells (CFU-GM); assay: Granulocyte-macrophage precursor cells (CFU-GM) in mice with Ehrlich ascitic tumor; type: in vivo, Balb/c mice
[7] = system: Lysteria monocytogenes; assay: In vitro antibacterial activity; type: cell-based
[8] = system: granulocyte-macrophage precursor cells in the bone marrow; assay: In vitro growth and differentiation of bone marrow granulocyte-macrophage precursor cells; type: cell-based; settings: bone marrow from normal donor Balb/c mice
[9] = Toxicity in tufted capuchin monkey, 30 days; type: in vivo, tufted capuchin monkey (Cebus apella); settings: doses up to 30 mg/kg
Source text: (§3) e) In vivo toxicologic properties.

[10] = system: Walker 256 tumoral cells; assay: Walker 256 tumor in gamma-irradiated immunodepressed Wistar rats; type: in vivo; settings: rats exposed to 4 Gy gamma radiation, subcutaneous administration
Source text: c) Immunomodulatory properties.

[11] = system: lymphocytes and natural killer (NK) cells; assay: Functional ability of immunocompetent cells in mice with Ehrlich ascitic tumor; type: in vivo, Balb/c mice; settings: 5.0 mg/kg for 7 days
Method: as §1

[12] = Toxicity in Wistar rats, 90 days; type: in vivo; settings: doses up to 100 mg/kg
Source text: as §3

[13] = system: Ehrlich ascitic tumor; assay: Ehrlich ascitic tumor in Balb/c mice; type: in vivo; settings: 5.0 mg/kg subcutaneous for 7 days
Method: Treatment with doses of 5.0 mg/kg of the compound of the present invention, subcutaneously administered for a period of 7 days to Balb/c mice which had been intraperitoneally inoculated with Ehrlich ascitic tumor inhibited 50% of the tumoral growth and increased by 50% the survival of the animals.

[14] = Toxicity in mice, single doses; type: in vivo
Source text: as §3

[15] = system: spontaneous mammary carcinoma; assay: Transplanted spontaneous mammary carcinoma in WAB/Not mice; type: in vivo; settings: 5.0 mg/kg intraperitoneal, 3 doses per week, 7 weeks
Source text: as §2

[16] = Immunotoxic properties in tufted capuchin monkey; design: species or system tufted capuchin monkey (Cebus apella); settings: in vivo
Method: f) Immunotoxic properties. […] The following organs were analyzed: bone marrow, spleen, lymph nodes, tonsils, and renal gland e Peyer's patch.
The spleen presented an increase of secondary follicles in the white pulp.
However, these cell alterations, found in the anatomopathological examination of the spleen from animals treated with the compound of the present invention, cannot be considered pathological in character; rather, they are due to immune system modulation caused by the use of the compound of the present invention.

[17] = system: Walker 256 tumoral cells; assay: Walker 256 tumor in female Wistar rats; type: in vivo; settings: daily subcutaneous doses of 0.5 mg/kg
[18] = system: 53 tumor cell cultures representing 8 distinct tumor types and leukemia
Source text: Cytotoxicity of the compound of the present invention was studied in the range of 10^−4 to 10^−8 M in 53 tumor cell cultures representing 8 distinct tumor types (lung, colon, central nervous system, melanoma, ovary, kidney, prostate and mammary) and leukemia.

[19] = rat, in vivo, ip, 750 mg/kg
Method: The bioavailability of the compound of the present invention was evaluated in Wistar rats by administering a single intraperitoneal dose of 750 mg/kg.

[20] = splenic cells stimulated by ConA

Substance: protein aggregate of ammonium and magnesium phospholinoleate-palmitoleate anhydride [compound of the present invention]
- interleukin-4 (IL-4) levels [1]: No alteration
- production of interleukin-10 (IL-10) ([1]; mice with tumors): significantly reduced
- gamma-interferon (IFN-) [1, 20]: significant increase
- interleukin-2 (IL-2) [1, 20]: significant increase
- mice protected against lethal infection ([2]; pre-treatment 0.5 mg/kg subcutaneous for 7 days): 30%
- mice protected against lethal infection ([2]; pre-treatment 5.0 mg/kg subcutaneous for 7 days): 40%
- myeloprotection ([2]; pre-treatment subcutaneous for 7 days): promoted myeloprotection
- production of IFN- [3]: increase
- production of IL-2 [3]: increase
- white blood cell count ([4]; blood of treated dogs vs infected controls treated with saline only): significant increase
- recovery rate ([4]; dogs carrying parvovirus and distemper virus): higher recovery rate
- increase in survival [5]: 50%
- tumoral growth rate [5]: significant decrease
- CFU-GM count in the spleen and splenomegalia ([6]; 5.0 mg/kg for 7 days): significant reduction
- myelopoiesis modulation ([6]; 5.0 mg/kg for 7 days before or after inoculation): particularly efficient
- number of granulocyte-macrophage precursor cells in the bone marrow (CFU-GM) ([6]; 0.5 to 5.0 mg/kg subcutaneous for 7 days): dose-dependent increase
- in vitro antibacterial activity [7]: does not display in vitro antibacterial activity
- in vitro effects on growth and differentiation of granulocyte-macrophage precursor cells [8]: did not present in vitro effects
- toxic effects [9]: No toxic effects
- response to treatment [10]: did not respond
- cytotoxicity mediated by natural killer (NK) cells [11]: stimulated
- proliferative ability of lymphocytes [11]: stimulated
- toxic effects [12]: No toxic effects
- increase in survival [13]: 50%
- inhibition of tumoral growth [13]: 50%
- toxic effects ([14]; single doses up to 2000 mg/kg): No toxic effects
- hematological, biochemical, physiological and anatomopathological parameters ([14]; stated jointly for the mouse, monkey and rat studies, treated vs control animals): No significant variation
- increase in survival [15]: 50%
- tumoral growth rate [15]: significant decrease
- granulocytic series in the bone marrow [16]: slight activation
- hematocrit and hemoglobin [16]: minor decrease
- immunotoxic properties [16]: No immunotoxic properties
- lymphocyte population [16]: small increase
- red pulp of the spleen, anatomopathological examination [16]: Erytrophagocytosis was visible
- secondary follicles in the white pulp of the spleen [16]: increase
- total leucocytes, particularly polymorphonuclear neutrophils [16]: increase
- animals with tumoral regression [17]: 50%
- cytotoxicity for tumor cells [18]: did not display cytotoxicity
- plasma t1/2 [19]: about 2 h
